Columns and labels:
Test in all cases: relative viability (nuclei count vs DMSO), 5 days (fraction); higher = more cells survive
DM3189 + Olaparib = compound: C1CN(CCN1)C2=CC=C(C=C2)C3=CN4C(=C(C=N4)C5=CC=NC6=CC=CC=C56)N=C3 [DM3189] + O=C(c1cc(Cc2n[nH]c(=O)c3ccccc23)ccc1F)N1CCN(C(=O)C2CC2)CC1 [Olaparib] (partner 8 µM)
Summary of the method: (§1)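 Nuclei were stained with Hoechst during a one-step fixation (final 0.05% Triton X-100, 1% formaldehyde, 1 ug/ml Hoechst) carried out 5 days after dosing, then counted on 4× images. The cells, lung cancer lines in 1536-well plates, had been dosed by pin tool the day after seeding with one drug alone or a fixed anchor-drug dose plus five library-drug doses (not always all listed) in √10 steps. Relative viability is the nuclei count in treated wells divided by that in vehicle wells, and each value is the median of duplicate plates.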

DM3189 + Crizotinib = compound: C1CN(CCN1)C2=CC=C(C=C2)C3=CN4C(=C(C=N4)C5=CC=NC6=CC=CC=C56)N=C3 [DM3189] + C[C@@H](Oc1cc(-c2cnn(C3CCNCC3)c2)cnc1N)c1c(Cl)ccc(F)c1Cl [Crizotinib] (partner 1 µM)
Summary of the method: as §1

DM3189 + Dasatinib = compound: C1CN(CCN1)C2=CC=C(C=C2)C3=CN4C(=C(C=N4)C5=CC=NC6=CC=CC=C56)N=C3 [DM3189] + Cc1nc(Nc2ncc(C(=O)Nc3c(C)cccc3Cl)s2)cc(N2CCN(CCO)CC2)n1 [Dasatinib] (partner 0.075 µM)
Summary of the method: as §1

DM3189 = compound: C1CN(CCN1)C2=CC=C(C=C2)C3=CN4C(=C(C=N4)C5=CC=NC6=CC=CC=C56)N=C3 [DM3189]
Summary of the method: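 Lung cancer cell lines received five library-drug doses (not always all listed) spaced by √10, pinned on vehicle-anchored 1536-well plates after an overnight stay at 37 °C. Five days later, with no medium change, nuclei were Hoechst-stained, imaged at 4× and counted with MetaXpress. Viability is treated-well nuclei relative to vehicle-well nuclei, as a median across plates. Passing plates had control CV below 25% and at least one doubling.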

DM3189 + Alpelisib = compound: C1CN(CCN1)C2=CC=C(C=C2)C3=CN4C(=C(C=N4)C5=CC=NC6=CC=CC=C56)N=C3 [DM3189] + Cc1nc(NC(=O)N2CCC[C@H]2C(N)=O)sc1-c1ccnc(C(C)(C)C(F)(F)F)c1 [Alpelisib] (partner 2 µM)
Summary of the method: as §1

| Cell Line | relative viability (DM3189 + Olaparib; first compound 0.08 µM) | relative viability (DM3189 + Olaparib; first compound 0.253 µM) | relative viability (DM3189 + Olaparib; first compound 0.8 µM) | relative viability (DM3189 + Olaparib; first compound 2.53 µM) | relative viability (DM3189 + Crizotinib; first compound 0.08 µM) | relative viability (DM3189 + Crizotinib; first compound 0.253 µM) | relative viability (DM3189 + Crizotinib; first compound 0.8 µM) | relative viability (DM3189 + Crizotinib; first compound 2.53 µM) | relative viability (DM3189 + Dasatinib; first compound 0.08 µM) | relative viability (DM3189 + Dasatinib; first compound 0.253 µM) | relative viability (DM3189 + Dasatinib; first compound 0.8 µM) | relative viability (DM3189 + Dasatinib; first compound 2.53 µM) | relative viability (DM3189; 0.08 µM) | relative viability (DM3189; 0.253 µM) | relative viability (DM3189; 0.8 µM) | relative viability (DM3189; 2.53 µM) | relative viability (DM3189 + Alpelisib; first compound 0.08 µM) | relative viability (DM3189 + Alpelisib; first compound 0.253 µM) | relative viability (DM3189 + Alpelisib; first compound 0.8 µM) | relative viability (DM3189 + Alpelisib; first compound 2.53 µM) |
| --- | --- | --- | --- | --- | --- | --- | --- | --- | --- | --- | --- | --- | --- | --- | --- | --- | --- | --- | --- | --- |
| ChaGo-K-1 | 0.48 | 0.393 | 0.369 | 0.439 | 1.03 | 1.1 | 0.97 | 1.09 | 0.734 | 0.563 | 0.561 | 0.535 | 1.01 | 0.997 | 0.971 | 1 | – | – | – | – |
| EKVX | 1.06 | – | 0.517 | 0.814 | 0.952 | 0.918 | 0.925 | 0.896 | 0.542 | 0.473 | 0.457 | 0.518 | 1.21 | 0.949 | 0.887 | 1 | 0.944 | 0.77 | 0.807 | 0.869 |
| EMC-BAC-2 | 0.5 | 0.455 | 0.339 | 0.492 | 0.8 | 0.71 | 0.686 | 0.773 | 0.372 | 0.32 | 0.319 | 0.353 | 1.09 | 0.898 | 0.936 | 1.22 | 0.684 | 0.432 | 0.718 | 0.8 |
| EPLC-272H | 0.669 | 0.714 | 0.735 | 0.565 | 0.97 | 0.96 | 0.941 | 0.821 | 0.406 | 0.375 | 0.276 | 0.265 | 0.975 | 0.823 | 0.917 | 0.896 | 0.876 | 1.1 | 0.916 | 0.838 |
| H3255 | 0.576 | 0.573 | 0.547 | 0.627 | 1.09 | 0.818 | 0.623 | 0.845 | 0.553 | 0.303 | 0.442 | 0.32 | 1.18 | 0.979 | 0.899 | 1.13 | 0.834 | 0.739 | 0.681 | 0.847 |
| HARA | 1.23 | 0.733 | 0.579 | 0.654 | 0.991 | 0.992 | 0.917 | 1.21 | 0.358 | 0.262 | 0.306 | 0.313 | 1.07 | 0.921 | 1.01 | 1.04 | 0.801 | 0.766 | 0.787 | 0.958 |
| HCC-15 | 0.737 | 0.724 | 0.518 | 0.591 | 0.883 | 0.763 | 0.824 | 0.685 | 0.632 | 0.541 | 0.492 | 0.559 | 1.07 | 0.923 | 0.91 | 0.942 | 0.951 | 0.798 | 0.802 | 0.894 |
| HCC-44 | 0.996 | 0.918 | 0.944 | 0.931 | 0.859 | 0.818 | 0.625 | 0.893 | – | – | – | – | 1.05 | 0.957 | 0.869 | 0.934 | 0.874 | 0.942 | 0.631 | 0.757 |

From the supplement of paper PMC10307832
